According to patent US12344610B2, “APOL1 inhibitors and methods of use” (Maze Therapeutics, Inc., priority 2022, dated 2025):

What follows are compounds tested against T1, APOL1 G2 (Homo sapiens, UniProt O14791, DEL388-389) (assay: APOL1-mediated calcium transport (calcium influx) assay, HEK T-REx/GCaMP6f/APOL1 G2 K6.3 cells, FLIPR TETRA). Settings: prevention of calcium influx; geometric mean of at least 2 assay runs; † = average of a technical replicate from a single assay run.
T1 construct: expressed in transfected cells; host or cells: HEK293 T-REx clonal line stably expressing GCaMP6f (HEK T-REx/GCaMP6f/APOL1 G2 K6.3), doxycycline induced
T1 sequence (O14791 with tags, fused parts or gaps DEL388-389): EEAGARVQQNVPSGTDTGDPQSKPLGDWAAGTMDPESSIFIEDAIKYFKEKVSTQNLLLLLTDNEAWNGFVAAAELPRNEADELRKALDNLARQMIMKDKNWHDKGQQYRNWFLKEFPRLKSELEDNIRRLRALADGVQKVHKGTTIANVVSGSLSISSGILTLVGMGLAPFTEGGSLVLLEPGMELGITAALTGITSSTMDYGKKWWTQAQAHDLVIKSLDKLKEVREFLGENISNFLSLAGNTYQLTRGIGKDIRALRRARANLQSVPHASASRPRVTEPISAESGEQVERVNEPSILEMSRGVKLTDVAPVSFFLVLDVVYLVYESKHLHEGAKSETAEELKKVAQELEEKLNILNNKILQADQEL
Format: cell-based
In short: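 A HEK293 T-REx clone stably expressing GCaMP6f had APOL1 G2 induced with doxycycline (20 ng/mL solution added) for 6 h. Cells were then washed into Ca2+-free Tyrode's buffer (pH 7.4) and preincubated with compounds (duplicate 8-point) for 10 min at room temperature. Ca2+ injection to 5 mM final produced FLIPR GCaMP fluorescence, giving AC50 for influx inhibition (geometric mean, ≥2 runs).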

| Compound | AC50 |
| --- | --- |
| Cn1c(=O)[nH]c2cc(OCCN3CCC4(CC3)C(=O)Nc3ccc(Cl)cc34)ccc21 [Compound 88, 5-chloro-1′-{2-[(1-methyl-2-oxo-2,3-dihydro-1H-1,3-benzodiazol-5-yl)oxy]ethyl}-1,2-dihydrospiro[indole-3,4′-piperidin]-2-one] | 698 nM |
| O=C1CCc2cc(OCCN3CCC4(CC3)C(=O)Nc3ccc(Cl)cc34)ccc2N1 [Compound 82, 5-chloro-1′-{2-[(2-oxo-1,2,3,4-tetrahydroquinolin-6-yl)oxy]ethyl}-1,2-dihydrospiro[indole-3,4′-piperidin]-2-one] | 1050 nM |
| CS(=O)(=O)C1(c2c(F)cc(OCCN3CCC4(CC3)C(=O)Nc3ccc(C#N)cc34)cc2F)COC1 [Compound 84, 1′-{2-[3,5-difluoro-4-(3-methanesulfonyloxetan-3-yl)phenoxy]ethyl}-2-oxo-1,2-dihydrospiro[indole-3,4′-piperidine]-5-carbonitrile] | 1450 nM |
| CS(=O)(=O)c1c(F)cc(OCCN2CCC3(CC2)C(=O)Nc2ccc(Cl)cc23)cc1F [Compound 89, 5-chloro-1′-[2-(3,5-difluoro-4-methanesulfonylphenoxy)ethyl]-1,2-dihydrospiro[indole-3,4′-piperidin]-2-one] | 463 nM |
| COC(=O)C1(S(=O)(=O)c2ccc(OCCN3CCC4(CC3)C(=O)Nc3ccc(Cl)cc34)cc2)CC1 [Compound 91, methyl 1-[4-(2-{5-chloro-2-oxo-1,2-dihydrospiro[indole-3,4′-piperidin]-1′-yl}ethoxy)benzenesulfonyl]cyclopropane-1-carboxylate] | 739 nM |
| CC1(S(=O)(=O)c2ccc(OCCN3CCC4(CC3)C(=O)Nc3ccc(Cl)cc34)cc2)COC1 [Compound 92, 5-chloro-1′-(2-{4-[(3-methyloxetan-3-yl)sulfonyl]phenoxy}ethyl)-1,2-dihydrospiro[indole-3,4′-piperidin]-2-one] | 761 nM |
| O=C1Nc2ccc(Cl)cc2C12CCN(CCOc1ccc3[nH]ncc3c1)CC2 [Compound 87, 5-chloro-1′-[2-(2H-indazol-5-yloxy)ethyl]-1,2-dihydrospiro[indole-3,4′-piperidin]-2-one] | 375 nM |
| CC(C)N1C(=O)CCc2cc(OCCN3CCC4(CC3)C(=O)Nc3ccc(C#N)cc34)ccc21 [Compound 96, 2-oxo-1′-(2-{[2-oxo-1-(propan-2-yl)-1,2,3,4-tetrahydroquinolin-6-yl]oxy}ethyl)-1,2-dihydrospiro[indole-3,4′-piperidine]-5-carbonitrile] | 552 nM |
| CS(=O)(=O)N1CCc2cc(OCCN3CCC4(CC3)C(=O)Nc3ccc(Cl)cc34)ccc2C1 [Compound 94, 5-chloro-1′-{2-[(2-methanesulfonyl-1,2,3,4-tetrahydroisoquinolin-6-yl)oxy]ethyl}-1,2-dihydrospiro[indole-3,4′-piperidin]-2-one] | 794 nM |
| CN1C(=O)CCc2cc(OCCN3CCC4(CC3)C(=O)Nc3ccc(C#N)cc34)ccc21 [Compound 95, 1′-{2-[(1-methyl-2-oxo-1,2,3,4-tetrahydroquinolin-6-yl)oxy]ethyl}-2-oxo-1,2-dihydrospiro[indole-3,4′-piperidine]-5-carbonitrile] | 655 nM |
| O=C1Nc2ccc(Cl)cc2C12CCN(CCOc1ccc3c(cnn3[C@H]3C[C@H](O)C3)c1)CC2 [Compound 86, 5-chloro-1′-[2-({1-[(trans)-3-hydroxycyclobutyl]-1H-indazol-5-yl}oxy)ethyl]-1,2-dihydrospiro[indole-3,4′-piperidin]-2-one] | 539 nM |
| O=C1Nc2ccc(Cl)cc2C12CCN(CCOc1ccc3c(cnn3[C@H]3C[C@@H](O)C3)c1)CC2 [Compound 85, 5-chloro-1′-[2-({1-[(cis)-3-hydroxycyclobutyl]-1H-indazol-5-yl}oxy)ethyl]-1,2-dihydrospiro[indole-3,4′-piperidin]-2-one] | 564 nM |
| CS(=O)(=O)N(CCO)c1ccc(OCCN2CCC3(CC2)C(=O)Nc2ccc(Cl)cc23)cc1 [Compound 98, N-[4-(2-{5-chloro-2-oxo-1,2-dihydrospiro[indole-3,4′-piperidin]-1′-yl}ethoxy)phenyl]-N-(2-hydroxyethyl)methanesulfonamide] | 600 nM |
| CC1(S(=O)(=O)c2ccc(OCCN3CCC4(CC3)C(=O)Nc3ccc(C#N)cc34)cc2)COC1 [Compound 93, 1′-(2-{4-[(3-methyloxetan-3-yl)sulfonyl]phenoxy}ethyl)-2-oxo-1,2-dihydrospiro[indole-3,4′-piperidine]-5-carbonitrile] | 951 nM |
| CC(C)N1C(=O)CCc2cc(OCCN3CCC4(CC3)C(=O)Nc3ccc(Cl)cc34)ccc21 [Compound 97, 5-chloro-1′-(2-{[2-oxo-1-(propan-2-yl)-1,2,3,4-tetrahydroquinolin-6-yl]oxy}ethyl)-1,2-dihydrospiro[indole-3,4′-piperidin]-2-one] | 823 nM |
| CS(=O)(=O)c1c(F)cc(OCCN2CCC3(CC2)C(=O)Nc2ccc(C#N)cc23)cc1F [Compound 90, 1′-[2-(3,5-difluoro-4-methanesulfonylphenoxy)ethyl]-2-oxo-1,2-dihydrospiro[indole-3,4′-piperidine]-5-carbonitrile] | 973 nM |
